Measurements published in BindingDB's records for doi:10.1016/s0960-894x(00)00654-5 (Roche Discover Welwyn, 2001).
*1 amine or outer side, *2 acyl side, *3 side chain or, on linkers, in order; H or OH if unused. Where a SMILES comes first, the peptide text is derived from it. [ ]: non-standard residue; d: D form. The star is where a group is joined. Phe(2-Me) = Cc1ccccc1C[C@H](N)C(=O)O; NleCONH2 = CCCC[C@H](N*)C(=O)C(N)=O; Suc = O=C(CCC(=O)[*:2])[*:1]; Tle = CC(C)(C)[C@H](N)C(=O)O

Assay: Compound was tested for inhibition of Serine protease chymotrypsin

Compound: CCCC[C@H](NC(=O)[C@H](CC(C)C)NC(=O)[C@@H](NC(=O)[C@H](Cc1ccccc1C)NC(=O)[C@H](CCC(=O)O)NC(=O)[C@H](CC(=O)O)NC(=O)CCC(=O)O)C(C)(C)C)C(=O)C(N)=O [(S)-4-((S)-1-{(S)-1-[(S)-1-((R)-1-Aminooxalyl-pentylcarbamoyl)-3-methyl-butylcarbamoyl]-2,2-dimethyl-propylcarbamoyl}-2-o-tolyl-ethylcarbamoyl)-4-[(S)-3-carboxy-2-(3-carboxy-propionylamino)-propionylamino]-butyric acid] (Suc-DE[Phe(2-Me)][Tle]L-NleCONH2)
- IC50: 300 nM
